The values that follow come from patent US20070037219A1, “Rhesus monkey bombesin receptor subtype-3 (brs-3), nucleotides encoding same, and uses thereof” (priority 2003, published 2007).

The test system of assay [1] is rhesus monkey BRS3 receptor. Nature of the assay: Functional expression of rhesus monkey BRS3 in aequorin-expressing reporter cell line 293-AEQ17 (luminescence, fractional response). Format: cell-based. The conditions noted are these: 293-AEQ17 cells transfected with rhesus monkey BRS3 plasmid, aequorin light emission, read-out: EC50 value for activation of the rhesus monkey BRS3 receptor. The procedure:
Measurement of rhesus monkey BRS3 receptor expression in the aequorin-expressing stable reporter cell line 293-AEQ17 (Button et al., 1993. Cell Calcium 14: 663-671) was performed using a Luminoskan RT luminometer (Labsystems Inc., Gaithersburg, Md.) controlled by custom software written for a Macintosh PowerPC 6100. 293-AEQ17 cells (8×10^5 cells plated 18 hours before transfection in a T75 flask) were transfected with 22 μg of rhesus monkey BRS3 receptor plasmid DNA: 264 μg lipofectamine.
Following approximately 40 hours of expression, the apo-aequorin in the cells was charged for 4 hours with coelenterazine (10 μM) under reducing conditions (300 μM reduced glutathione) in ECB buffer (140 mM NaCl, 20 mM KCl, 20 mM HEPES-NaOH [pH=7.4], 5 MM glucose, 1 mM MgCl2, 1 mM CaCl2, 0.1 mg/ml bovine serum albumin). The cells were harvested, washed once in ECB medium and resuspended to 500,000 cells/ml. 100 μl of cell suspension (corresponding to 5×10^4 cells) was then injected into the test plate containing the BRS3 agonist peptide D-Tyr6-betaAla11-Phe13-Nle14]bombesin6-14, and the integrated light emission was recorded over 30 seconds, in 0.5-second units. 20 μL of lysis buffer (0.1% final Triton X-100 concentration) was then injected and the integrated light emission recorded over 10 seconds, in 0.5-second units. […]

Assay [2] concerns all three human bombesin receptor subtypes. The conditions noted are these: literature statement, Pradhan et al., Eur. J. Pharmacol. 343: 275-87 (1998); cited from earlier work.
In assay [3] the target is rhesus monkey bombesin receptor subtype-3 (rhesus monkey) (UniProt Q6H2Y3). Nature of the assay: cell-based or functional assay.
Chain of rhesus monkey bombesin receptor subtype-3 (rhesus monkey) (Q6H2Y3 whole entry): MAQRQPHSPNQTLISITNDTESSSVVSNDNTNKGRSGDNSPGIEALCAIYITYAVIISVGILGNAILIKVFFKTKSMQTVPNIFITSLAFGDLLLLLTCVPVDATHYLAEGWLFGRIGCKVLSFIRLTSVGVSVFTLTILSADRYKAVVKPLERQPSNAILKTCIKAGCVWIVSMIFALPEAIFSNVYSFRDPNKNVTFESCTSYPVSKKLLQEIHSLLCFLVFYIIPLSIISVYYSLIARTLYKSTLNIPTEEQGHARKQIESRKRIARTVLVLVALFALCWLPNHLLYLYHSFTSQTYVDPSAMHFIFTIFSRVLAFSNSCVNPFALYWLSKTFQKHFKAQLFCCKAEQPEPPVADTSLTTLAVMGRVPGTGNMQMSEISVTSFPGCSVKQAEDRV

Chain of rhesus monkey BRS3 receptor (as listed by the source): as the sequence (Q6H2Y3 whole entry) above

On to “[D-Tyr6-betaAlal 11-Phe13-Nle14] bombesin(6-14) [dYB]”, for which the EC50 (as a rule, the concentration at which the effect is half-maximal) in assay [1] came out at 0.01 µM. Moreover, the “affinity for all three human bombesin receptor subtypes” value in assay [2] is listed as “high affinity”. For the substance “[D-Tyr6-betaAla11-Phe13-Nle14]bombesin(6-14) (peptide)”, the EC50 value for activation (aequorin luminescence, fractional response, in transfected 293-AEQ17 cells) in assay [3] amounted to 0.01 µM.
